The conditions of series [1]: experimental animals; cited from earlier work.
Series [2] relates to LNCaP/prostate stroma coculture tumors. Briefly: Efficacy against LNCaP/prostate stroma coculture tumors in SCID mice (tumor volume). It counts as in vivo, CB17.SCID mice. Conditions: naked antibody 30 mg/kg IP SD on Day 0; to Day 62; FIG. 4. As to the method:
In order to determine the efficacy of anti-RG-1 and ED-B-cytotoxin conjugates (using the cytotoxin/linker of formula (m)), LNCaP xenografts were performed as follows: 120 CB17.SCID mice were each subcutaneously injected with 2 million LNCaP cells and 1 million prostate stroma cells (cat# CC-2508, Cambrex Bio Science Walkersville, Inc, Walkersville, Md.) resuspended in 0.2 ml of PBS/Matrigel (1:1) (BD Bioscience) at the flank region. This LNCaP/Stroma model expresses high levels of PMSA on the cell surface, high levels of RG-1 in the stroma, and low levels of ED-B in the stroma. CD70 is used as an isotype control as the xenographs are negative for CD70. Mice were weighed and measured for tumors three dimensionally using an electronic caliper once weekly after implantation. Tumor volumes were calculated as height×width×length/2. Mice with tumors averaging 50 mm^3 were randomized into 16 treatment groups of seven mice on Day-1 and mice were treated intraperitoneally with vehicle, antibody, or antibody-cytotoxin conjugate according to the dosing regimen described in Table 1 on Day 0, Studies were terminated at Day 62.

The source of these data is patent publication US20090162372A1, “FIBRONECTIN ED-B ANTIBODIES, CONJUGATES THEREOF, AND METHODS OF USE” (Medarex, Inc., priority 2007, published 2009).

As to `COc1c(O)c2c(c3cc(C(=O)N4CCc5c4c(O)c(OC)c4[nH]c(C(=O)N6CC7CC78C6=CC(=O)c6[nH]cc(C)c68)cc54)[nH]c13)CCN2C(N)=O` (centres unmarked) [CC-1065], in series [1], the delayed death entry is listed as “causes delayed death in experimental animals”.

B1: anti-ED-B: human monoclonal antibody 1C5 binding fibronectin ED-B, VH SEQ ID NO: 7, VL SEQ ID NO: 8; naked antibody (antibody, listed as Homo sapiens, V domains shown)
VH: EVQLVESGGGLVQPGGSLRLSCAASGFTFSSYSMNWVRQAPGKGLEWVSYISSSSRAIYYADSVKGRFTISRDNAKNSLYLQMNSLRDEDTAVYYCARARYFDWLWYYWGQGTLVTVSS
VL: EIVLTQSPGTLSLSPGERATLSCRASQSVSSSYLAWYQQEPGQAPRLLIYGASSRATGIPDRFSGSGSGTDFTLTISRLEPEDFAVYYCQQRSNWPPTFGQGTKVEIK
As to B1, in series [2], the “effect on tumor growth (median tumor volume)” value is on record as “no inhibitory effect on tumor growth”.
